Test system: blood cells
Experiment: Genes induced in blood 24 hours following kainate induced seizures (Affymetrix microarray)
Assay type: in vivo, rat
Conditions: for Average fold induction / Minimum fold induction: rat blood 24 h after kainate induced seizures vs untouched controls
Protocol: Status epilepticus is produced by intraperitoneally injecting a glutamate analogue/excitotoxin, kainic acid (10 mg/kg i.p.). Animals with kainate-induced seizures are observed following drug administration to ensure that they continue to have complex seizures over a 30 minute period.
All animals are allowed to survive for 24 hours following each treatment. At that time they are deeply anesthetized with ketamine (100 mg/kg) and xylazine (20 mg/kg) given intraperitoneally. Once anesthetized, the chest is opened and a direct cardiac puncture performed with a syringe and 10 cc of blood is aspirated. Immediately following removal of the blood, the animal is decapitated while deeply anesthetized and the brain removed.
One day after hypoxia, status epilepticus, hypoglycemia, ischemic stroke, and hemorrhagic stroke are produced in adult rats, RNA or protein is isolated from the blood cells and from the brains of the animals described in Example 1. The pattern of genes or proteins expressed in the blood cells following each of these types of injury—hypoxia, status epilepticus, hypoglycemia, ischemic stroke, and hemorrhagic stroke is captured on a commercially available microarray (Affymetrix chip). The pattern of gene or protein expression is defined using an expression method, which then forms a genomic or proteomic organ injury database, which is used in assessing injury.
For the tables of genes induced in the blood, the genome expression of blood in the hypoxic animals (3 animals) was compared to the genome expression of blood in untouched control animals (3 animals). The genome expression of blood in the animals with status epilepticus (3 animals) was compared to the genome expression of blood in the untouched control animals (3 animals). The genome expression of blood in the animals with stroke (3 animals) was compared to the genome expression of blood in the sham operated control animals (3 animals). In each case the accession number of the gene and the fold change in gene expression is given—with a maximum estimate and a minimum estimate.
Table 2 sets forth genes induced in the blood of rats 24 hours following kainate induced seizures (n=3 rats) as compared with genes expressed in the blood of untouched control rats (n=3 rats). The accession number of the gene is given, the name of the gene is given where known, the average fold induction is given, as well as the minimum fold induction is given for each gene. A number of the genes are ESTs that have not yet been subjected to a BLAST search. This list was shortened to show only those genes induced at least 2.8 fold. Over 100 genes were induced following kainate on arrays that contained over 8000 genes.

[1] = gene AF027571_s_at phospholipase C-beta 4 isoform (PLC-b4)
[2] = gene AF091563_i_at isolate QIL-LD1 olfactory receptor
[3] = gene AF102552_s_at ankyrin G isoform
[4] = gene D84485_at PMSG-induced ovarian mRNA
[5] = gene L42855_at RNA polymerase II transcription factor SIII p18 subunit
[6] = gene L81136cds_f_at Rps2r1 preliminary DNA
[7] = gene M96159_at adenylyl cyclase type V
[8] = gene S54212_at ciliary neurotrophic factor receptor alpha
[9] = gene U66566_at receptor type protein tyrosine phophatase psi
[10] = gene X06827_at porphobilinogen deaminase
[11] = gene Z28351exon_s_at 25-hydroxyvitamin D3 24-hydroxylase

C=C(C)[C@H]1CN[C@H](C(=O)O)[C@H]1CC(=O)O [kainate, kainic acid]
Average fold induction [1]: 4.15 fold
Minimum fold induction [1]: 2.5 fold
Average fold induction (gene AF045464_s_at): 6.5 fold
Minimum fold induction (gene AF045464_s_at): 2.5 fold
Average fold induction (gene AF079162_at patched (ptc)): 5.4 fold
Minimum fold induction (gene AF079162_at patched (ptc)): 3.2 fold
Average fold induction [2]: 3.4 fold
Minimum fold induction [2]: 2.4 fold
Average fold induction [3]: 4.6 fold
Minimum fold induction [3]: 2.4 fold
Average fold induction [4]: 11.4 fold
Minimum fold induction [4]: 3.1 fold
Average fold induction (gene D89863_g_at (M-ras) M-Ras): 5.6 fold
Minimum fold induction (gene D89863_g_at (M-ras) M-Ras): 2.3 fold
Average fold induction [5]: 4.32 fold
Minimum fold induction [5]: 3.4 fold
Average fold induction [6]: 3.9 fold
Minimum fold induction [6]: 2.7 fold
Average fold induction (gene L81138exon Rps2r gene): 5.5 fold
Minimum fold induction (gene L81138exon Rps2r gene): 2.3 fold
Average fold induction (gene M91234_f_at VL30 element): 4.4 fold
Minimum fold induction (gene M91234_f_at VL30 element): 2.5 fold
Average fold induction (gene M91235_f_at VL30 element): 3.9 fold
Minimum fold induction (gene M91235_f_at VL30 element): 3 fold
Average fold induction [7]: 10 fold
Minimum fold induction [7]: 2.9 fold
Average fold induction (gene Rc_AA799614_at): 4.7 fold
Minimum fold induction (gene Rc_AA799614_at): 2.5 fold
Average fold induction (gene Rc_AA852046_s_at): 4.3 fold
Minimum fold induction (gene Rc_AA852046_s_at): 2.5 fold
Average fold induction (gene Rc_AA891828_at): 4 fold
Minimum fold induction (gene Rc_AA891828_at): 2.6 fold
Average fold induction (gene Rc_AA894273_at): 5.2 fold
Minimum fold induction (gene Rc_AA894273_at): 2.8 fold
Average fold induction (gene Rc_AA925529_at): 4 fold
Minimum fold induction (gene Rc_AA925529_at): 3 fold
Average fold induction (gene Rc_AA955182_g_at): 9 fold
Minimum fold induction (gene Rc_AA955182_g_at): 2.3 fold
Average fold induction (gene Rc_AI104924_f_at): 4.1 fold
Minimum fold induction (gene Rc_AI104924_f_at): 3.3 fold
Average fold induction [8]: 2.8 fold
Minimum fold induction [8]: 2.6 fold
Average fold induction [9]: 5.5 fold
Minimum fold induction [9]: 4.3 fold
Average fold induction (gene U73030_at): 4.1 fold
Minimum fold induction (gene U73030_at): 2.4 fold
Average fold induction [10]: 3.6 fold
Minimum fold induction [10]: 3 fold
Average fold induction (gene X60675_at interleukin 10): 3.6 fold
Minimum fold induction (gene X60675_at interleukin 10): 2.3 fold
Average fold induction (gene X76697_at B7 antigen): 5.7 fold
Minimum fold induction (gene X76697_at B7 antigen): 2.5 fold
Average fold induction [11]: 3.5 fold
Minimum fold induction [11]: 2.3 fold
Average fold induction (gene rc_AI102562_at): 3 fold
Minimum fold induction (gene rc_AI102562_at): 2.4 fold
Number of genes induced following kainate (rat blood, arrays that contained over 8000 genes): Over 100 genes

Source: patent US20030104393A1, “Blood assessment of injury” (priority 2000, published 2003)
